What was measured:
AKT2 = AKT2 (Homo sapiens, UniProt P31751); test: Kinase profiling, single-dose in vitro kinase assay (Caliper Life Sciences); conditions: read-out: Average % Inhibition AKT2
Ikkb = Ikkb (Homo sapiens, UniProt O14920); test: as above; conditions: read-out: Average % Inhibition Ikkb
Erk1 = Erk1 (Homo sapiens, UniProt P27361); test: as above; conditions: read-out: Average % Inhibition Erk1, 10 μM
PDGFRα = PDGFRα (Homo sapiens, UniProt P16234); test: as above; conditions: read-out: Average % Inhibition PDGFRα
Chain of PDGFRα (P16234 24-1089): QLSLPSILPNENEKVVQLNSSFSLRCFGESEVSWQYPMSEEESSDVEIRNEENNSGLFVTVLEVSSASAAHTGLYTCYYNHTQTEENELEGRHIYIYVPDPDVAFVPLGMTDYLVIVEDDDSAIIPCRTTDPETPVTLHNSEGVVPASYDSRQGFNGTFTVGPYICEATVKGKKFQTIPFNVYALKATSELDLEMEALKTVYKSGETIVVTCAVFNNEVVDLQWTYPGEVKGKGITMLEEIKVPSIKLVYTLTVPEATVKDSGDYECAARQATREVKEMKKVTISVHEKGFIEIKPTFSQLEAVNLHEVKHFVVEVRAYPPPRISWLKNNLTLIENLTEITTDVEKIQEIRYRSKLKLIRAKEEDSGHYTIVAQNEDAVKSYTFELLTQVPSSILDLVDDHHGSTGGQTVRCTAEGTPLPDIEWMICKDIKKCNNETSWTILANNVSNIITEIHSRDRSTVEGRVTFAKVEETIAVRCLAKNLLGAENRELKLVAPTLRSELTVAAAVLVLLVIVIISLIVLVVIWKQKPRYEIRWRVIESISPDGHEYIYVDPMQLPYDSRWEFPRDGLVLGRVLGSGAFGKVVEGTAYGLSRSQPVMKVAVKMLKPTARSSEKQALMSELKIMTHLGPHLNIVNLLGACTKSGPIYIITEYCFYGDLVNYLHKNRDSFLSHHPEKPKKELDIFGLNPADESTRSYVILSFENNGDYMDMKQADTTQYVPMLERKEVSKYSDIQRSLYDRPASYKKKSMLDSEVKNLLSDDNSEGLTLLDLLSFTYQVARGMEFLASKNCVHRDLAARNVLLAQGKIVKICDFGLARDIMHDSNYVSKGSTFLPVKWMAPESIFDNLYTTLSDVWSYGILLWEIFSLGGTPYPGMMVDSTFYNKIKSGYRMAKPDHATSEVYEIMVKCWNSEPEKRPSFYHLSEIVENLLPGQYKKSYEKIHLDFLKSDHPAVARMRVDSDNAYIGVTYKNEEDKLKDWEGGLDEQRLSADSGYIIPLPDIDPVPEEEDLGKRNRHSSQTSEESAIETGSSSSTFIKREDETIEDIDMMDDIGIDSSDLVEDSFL

SRC = SRC (Homo sapiens, UniProt P12931); test: as above; conditions: read-out: Average % Inhibition SRC
PKD2 = target: T1, PKD2 (Homo sapiens, UniProt Q9BZL6); test: as above; conditions: read-out: Average % Inhibition PKD2
T1 sequence (Q9BZL6 1-878): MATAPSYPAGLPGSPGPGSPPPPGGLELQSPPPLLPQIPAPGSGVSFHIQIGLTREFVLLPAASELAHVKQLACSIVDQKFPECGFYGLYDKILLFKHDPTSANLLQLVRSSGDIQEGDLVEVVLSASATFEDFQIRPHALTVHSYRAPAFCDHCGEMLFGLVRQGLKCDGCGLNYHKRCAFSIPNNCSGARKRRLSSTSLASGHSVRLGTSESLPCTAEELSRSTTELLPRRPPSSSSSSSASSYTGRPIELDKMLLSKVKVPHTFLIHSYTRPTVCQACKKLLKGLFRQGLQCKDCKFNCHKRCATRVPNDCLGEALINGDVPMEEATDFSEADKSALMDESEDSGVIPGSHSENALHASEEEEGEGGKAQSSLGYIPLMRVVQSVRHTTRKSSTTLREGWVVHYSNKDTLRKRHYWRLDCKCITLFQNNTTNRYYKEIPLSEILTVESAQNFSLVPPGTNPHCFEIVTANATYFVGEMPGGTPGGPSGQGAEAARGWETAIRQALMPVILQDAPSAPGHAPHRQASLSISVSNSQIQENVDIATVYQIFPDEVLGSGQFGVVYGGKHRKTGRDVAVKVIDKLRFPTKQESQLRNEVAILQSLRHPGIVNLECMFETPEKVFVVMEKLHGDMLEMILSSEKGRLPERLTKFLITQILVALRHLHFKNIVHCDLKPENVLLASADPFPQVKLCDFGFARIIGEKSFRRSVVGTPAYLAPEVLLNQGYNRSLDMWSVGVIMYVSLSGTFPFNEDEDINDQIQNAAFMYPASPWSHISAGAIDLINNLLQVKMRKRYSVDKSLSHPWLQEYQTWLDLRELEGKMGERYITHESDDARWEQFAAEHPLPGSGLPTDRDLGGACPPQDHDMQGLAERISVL

ErbB4 = ErbB4 (Homo sapiens, UniProt Q15303); test: as above; conditions: read-out: Average % Inhibition ErbB4
Chain of ErbB4 (Q15303 26-1308): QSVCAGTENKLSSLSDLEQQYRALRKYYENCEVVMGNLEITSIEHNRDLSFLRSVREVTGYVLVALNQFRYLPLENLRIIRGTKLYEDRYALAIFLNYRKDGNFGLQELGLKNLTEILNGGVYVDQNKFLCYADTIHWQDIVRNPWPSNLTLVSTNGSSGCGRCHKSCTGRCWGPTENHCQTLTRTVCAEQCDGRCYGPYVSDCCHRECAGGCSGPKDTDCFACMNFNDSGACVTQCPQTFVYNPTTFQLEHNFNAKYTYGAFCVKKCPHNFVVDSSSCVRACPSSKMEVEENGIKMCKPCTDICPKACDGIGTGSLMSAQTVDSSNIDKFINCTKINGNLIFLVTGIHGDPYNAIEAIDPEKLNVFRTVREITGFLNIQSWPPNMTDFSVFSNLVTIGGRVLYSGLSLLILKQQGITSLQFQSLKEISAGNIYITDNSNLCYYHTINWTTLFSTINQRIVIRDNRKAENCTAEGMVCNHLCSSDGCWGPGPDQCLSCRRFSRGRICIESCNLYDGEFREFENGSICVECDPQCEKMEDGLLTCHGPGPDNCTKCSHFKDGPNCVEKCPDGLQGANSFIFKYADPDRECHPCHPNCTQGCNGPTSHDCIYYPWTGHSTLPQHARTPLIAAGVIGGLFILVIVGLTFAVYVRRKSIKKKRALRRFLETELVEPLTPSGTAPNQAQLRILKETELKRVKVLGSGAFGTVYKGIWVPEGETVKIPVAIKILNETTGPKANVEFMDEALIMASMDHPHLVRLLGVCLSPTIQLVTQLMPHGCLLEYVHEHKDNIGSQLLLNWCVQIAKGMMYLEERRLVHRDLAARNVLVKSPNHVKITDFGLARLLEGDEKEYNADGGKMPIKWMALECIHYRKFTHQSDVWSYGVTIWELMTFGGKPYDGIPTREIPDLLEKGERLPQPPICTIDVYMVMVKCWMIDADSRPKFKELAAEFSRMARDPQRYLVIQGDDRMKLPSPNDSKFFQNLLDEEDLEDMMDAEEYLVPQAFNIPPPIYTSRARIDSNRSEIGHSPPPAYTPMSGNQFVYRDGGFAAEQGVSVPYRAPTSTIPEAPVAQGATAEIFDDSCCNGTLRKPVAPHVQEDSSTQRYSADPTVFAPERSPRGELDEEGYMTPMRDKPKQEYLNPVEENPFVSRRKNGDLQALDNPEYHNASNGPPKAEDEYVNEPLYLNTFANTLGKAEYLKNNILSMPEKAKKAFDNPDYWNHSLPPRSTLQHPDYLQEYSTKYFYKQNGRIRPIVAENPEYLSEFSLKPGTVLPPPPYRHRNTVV

CHK1 = CHK1 (Homo sapiens, UniProt O14757); test: as above; conditions: read-out: Average % Inhibition CHK1
FGFR1 = FGFR1 (Homo sapiens, UniProt P11362); test: as above; conditions: read-out: Average % Inhibition FGFR1
EGFR = EGFR (Homo sapiens, UniProt P00533); test: as above; conditions: read-out: Average % Inhibition EGFR
PDK1 = PDK1 (Homo sapiens, UniProt O15530); test: as above; conditions: read-out: Average % Inhibition PDK1
Chain of PDK1 (O15530 whole entry): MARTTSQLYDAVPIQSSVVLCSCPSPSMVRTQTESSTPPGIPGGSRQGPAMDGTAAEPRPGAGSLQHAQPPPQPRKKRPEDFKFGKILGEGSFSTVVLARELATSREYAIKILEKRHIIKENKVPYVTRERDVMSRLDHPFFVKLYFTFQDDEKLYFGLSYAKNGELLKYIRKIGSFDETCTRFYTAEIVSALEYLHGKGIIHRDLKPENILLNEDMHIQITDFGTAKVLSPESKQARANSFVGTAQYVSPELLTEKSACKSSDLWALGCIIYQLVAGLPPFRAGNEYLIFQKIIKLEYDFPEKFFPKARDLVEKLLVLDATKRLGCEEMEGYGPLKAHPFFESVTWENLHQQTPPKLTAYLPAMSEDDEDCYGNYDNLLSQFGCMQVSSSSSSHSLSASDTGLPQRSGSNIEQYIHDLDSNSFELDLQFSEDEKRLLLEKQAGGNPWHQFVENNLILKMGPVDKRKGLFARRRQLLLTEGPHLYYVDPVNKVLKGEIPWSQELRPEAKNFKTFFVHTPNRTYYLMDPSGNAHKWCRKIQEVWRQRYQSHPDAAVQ

IRAK4 = IRAK4 (Homo sapiens, UniProt Q9NWZ3); test: as above; conditions: read-out: Average % Inhibition IRAK4
BTK = BTK (Homo sapiens, UniProt Q06187); test: as above; conditions: read-out: Average % Inhibition BTK
Chain of BTK (Q06187 whole entry): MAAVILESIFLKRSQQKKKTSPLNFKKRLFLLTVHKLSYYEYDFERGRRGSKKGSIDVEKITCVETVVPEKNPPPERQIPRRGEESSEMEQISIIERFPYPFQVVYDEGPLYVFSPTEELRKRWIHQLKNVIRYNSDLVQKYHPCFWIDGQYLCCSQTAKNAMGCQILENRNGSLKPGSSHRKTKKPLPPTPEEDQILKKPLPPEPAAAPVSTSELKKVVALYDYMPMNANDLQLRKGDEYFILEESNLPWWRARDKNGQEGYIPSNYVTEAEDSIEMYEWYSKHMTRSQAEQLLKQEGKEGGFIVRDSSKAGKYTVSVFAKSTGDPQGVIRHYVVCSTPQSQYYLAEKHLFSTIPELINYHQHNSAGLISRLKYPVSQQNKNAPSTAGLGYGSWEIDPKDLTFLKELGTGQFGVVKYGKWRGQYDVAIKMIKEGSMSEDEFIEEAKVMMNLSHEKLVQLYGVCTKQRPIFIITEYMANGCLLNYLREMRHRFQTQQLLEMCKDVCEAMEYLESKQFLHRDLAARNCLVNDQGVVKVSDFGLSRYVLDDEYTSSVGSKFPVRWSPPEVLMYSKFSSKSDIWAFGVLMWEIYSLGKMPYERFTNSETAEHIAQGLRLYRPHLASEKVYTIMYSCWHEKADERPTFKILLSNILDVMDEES

AKT1 = AKT1 (Homo sapiens, UniProt P31749); test: as above; conditions: read-out: Average % Inhibition AKT1
CAMKIIα = target: T2, CAMKIIα (Homo sapiens, UniProt Q9UQM7); test: In vitro radiometric CAMK kinase assay; type: biochemical
T2 construct: purchased Enzo Life Sciences
Description: In vitro radiometric kinase assays were conducted as previously described. Briefly, 1 μCi [γ-^32P] ATP (PerkinElmer Life Sciences), 70 μM ATP, 50 ng purified recombinant human PKD1 (Biomol International, Plymouth Meeting, PA), PKD2 (SignalChem, Richmond, BC, Canada), or CAMKIIα (Enzo Life Sciences) or 75 ng PKD3 (Enzo Life Sciences), and 2.5 μg syntide-2 (Sigma) in 50 μl kinase buffer containing 50 mM Tris-HCl, pH 7.5, 4 mM MgCl2, and 10 mM β-mercaptoethanol. For the CAMK assay, 0.5 mM CaCl2 and 30 ng/μl calmodulin were pre-incubated for 10 min on ice, and then added to each reaction mixture. The reaction was incubated at 30°C for 10 min, and 25 μl of the reaction mixture was then spotted onto Whatman P81 filter paper (Whatman Inc., Clifton, NJ). The filter papers were washed 3 times in 0.5% phosphoric acid, air-dried, and counted using a Beckman LS6500 multipurpose scintillation counter (Beckman).
To determine whether the novel analogs retained this specificity, we tested the compounds against their ability to inhibit PKCα, -βI, -δ, and CAMKIIα in in vitro radiometric kinase activity assays.
Inhibition of PKCα (A), PKCβI (B), PKCδ (C), or CAMKIIα (D) by each of the 5 analogs was determined at 100 nM, 1 μM, and 10 μM concentrations. […] Statistical significance was determined using the unpaired t-test. ns, not statistically significant; *, p < 0.05; **, p < 0.01; ***, p < 0.001.

Chain of AKT2 (P31751 whole entry): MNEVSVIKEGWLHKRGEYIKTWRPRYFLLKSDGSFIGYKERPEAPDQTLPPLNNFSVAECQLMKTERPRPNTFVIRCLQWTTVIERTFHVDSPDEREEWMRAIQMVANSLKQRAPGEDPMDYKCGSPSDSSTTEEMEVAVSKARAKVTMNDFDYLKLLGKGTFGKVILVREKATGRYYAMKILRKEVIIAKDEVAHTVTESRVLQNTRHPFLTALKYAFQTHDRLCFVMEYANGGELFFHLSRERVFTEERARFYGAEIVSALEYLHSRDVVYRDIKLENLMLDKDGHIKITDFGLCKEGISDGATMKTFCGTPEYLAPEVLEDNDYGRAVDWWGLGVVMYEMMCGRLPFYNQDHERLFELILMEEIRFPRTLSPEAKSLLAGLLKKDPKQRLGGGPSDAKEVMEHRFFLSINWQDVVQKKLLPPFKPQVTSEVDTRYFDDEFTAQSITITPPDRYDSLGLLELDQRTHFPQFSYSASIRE
Chain of Ikkb (O14920 whole entry): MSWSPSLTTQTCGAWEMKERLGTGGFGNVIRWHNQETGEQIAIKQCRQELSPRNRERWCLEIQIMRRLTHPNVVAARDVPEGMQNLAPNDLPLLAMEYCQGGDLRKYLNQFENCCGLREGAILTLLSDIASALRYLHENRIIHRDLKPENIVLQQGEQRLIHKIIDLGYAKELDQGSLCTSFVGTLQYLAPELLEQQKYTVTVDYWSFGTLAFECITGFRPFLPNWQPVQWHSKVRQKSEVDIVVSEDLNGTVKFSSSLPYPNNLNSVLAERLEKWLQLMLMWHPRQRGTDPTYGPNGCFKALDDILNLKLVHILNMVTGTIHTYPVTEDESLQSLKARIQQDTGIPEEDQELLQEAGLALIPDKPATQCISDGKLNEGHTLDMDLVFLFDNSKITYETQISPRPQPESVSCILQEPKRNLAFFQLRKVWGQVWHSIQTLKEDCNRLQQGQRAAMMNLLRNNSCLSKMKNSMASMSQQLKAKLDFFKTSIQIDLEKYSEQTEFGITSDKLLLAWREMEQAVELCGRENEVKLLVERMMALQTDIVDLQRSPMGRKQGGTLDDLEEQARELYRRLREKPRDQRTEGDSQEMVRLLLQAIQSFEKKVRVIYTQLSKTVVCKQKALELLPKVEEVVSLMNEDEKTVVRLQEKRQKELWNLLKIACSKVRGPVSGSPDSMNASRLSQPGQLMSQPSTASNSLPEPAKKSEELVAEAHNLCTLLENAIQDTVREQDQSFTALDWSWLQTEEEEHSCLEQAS

Compound	inhibition at 10 µM (AKT2) [%]	inhibition at 10 µM (Ikkb) [%]	inhibition at 10 µM (Erk1) [%]	inhibition at 10 µM (PDGFRα) [%]	inhibition at 10 µM (SRC) [%]	inhibition at 10 µM (PKD2) [%]	inhibition at 10 µM (ErbB4) [%]	inhibition at 10 µM (CHK1) [%]	inhibition at 10 µM (FGFR1) [%]	inhibition at 10 µM (EGFR) [%]	inhibition at 10 µM (PDK1) [%]	inhibition at 10 µM (IRAK4) [%]	inhibition at 10 µM (BTK) [%]	inhibition at 10 µM (AKT1) [%]	inhibition of CAMKIIα (in words) (CAMKIIα)	inhibition at 10 µM (CAMKIIα; 10 μM) [%]
O=C1NCCCc2c1oc1ccc(O)cc21 [CID755673, 7-Hydroxy-2,3,4,5-tetrahydro-[1]benzoxolo[2,3-c]azepin-1-one]	4	49	≥ 50	5	7	95	1	7	16	11	22	0	-3	3	–	–
O=C1NCCSc2c1sc1ccc(O)c(I)c21 [kb-NB165-31]	–	–	–	–	–	–	–	–	–	–	–	–	–	–	significant inhibitory activity	~70

Reference: paper PMC2873968, “Novel protein kinase D inhibitors cause potent arrest in prostate cancer cell growth and motility” (BMC Chemical Biology, 2010)
